According to patent US9199946B2, “Pyrimidinone carboxamide inhibitors of endothelial lipase” (BRISTOL-MYERS SQUIBB COMPANY, priority 2012, dated 2015):
Where two headings read alike, the source gives them in different places.

Target: T1, Endothelial lipase (EL) (Homo sapiens, UniProt Q9Y5X9)
T1 construct: HT-1080 cells, which were transformed by RAGE technology (Athersys) to overexpress endogenous EL; endogenous in cells; conditioned medium used as the enzyme source
T1 sequence (Q9Y5X9 21-500): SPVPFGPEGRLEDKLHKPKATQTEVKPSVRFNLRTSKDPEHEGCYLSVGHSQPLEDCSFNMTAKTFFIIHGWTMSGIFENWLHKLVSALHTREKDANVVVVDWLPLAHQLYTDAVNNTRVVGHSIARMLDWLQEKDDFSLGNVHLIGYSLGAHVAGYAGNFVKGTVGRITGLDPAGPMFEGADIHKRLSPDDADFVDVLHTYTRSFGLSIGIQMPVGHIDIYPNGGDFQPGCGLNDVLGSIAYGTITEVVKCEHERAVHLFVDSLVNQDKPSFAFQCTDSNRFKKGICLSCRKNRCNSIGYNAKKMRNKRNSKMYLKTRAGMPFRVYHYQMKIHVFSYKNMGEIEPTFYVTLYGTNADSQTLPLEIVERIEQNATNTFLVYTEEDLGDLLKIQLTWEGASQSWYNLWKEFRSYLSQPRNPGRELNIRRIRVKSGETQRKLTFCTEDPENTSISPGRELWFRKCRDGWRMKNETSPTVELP
Assay: Endothelial lipase (EL) enzymatic assay with fluorescent substrate A10070 in DMPG vesicles
Format: biochemical
Method: Endothelial lipase activity was measured using a fluorescent substrate, A10070, (Invitrogen, CA) doped into an artificial vesicle containing DMPG (Avanti Polar Lipids) as the excipient. Vesicles were prepared by combining 285 μL of 1 mM DMPG in a 1:1 mixture of MeOH and CHCl3 with 15 μL of 1 mM A10070 in a 1:1 mixture of MeOH and CHCl3. The mixture was dried under nitrogen and resuspended in 150 μL of 50 mM HEPES pH 8.0 buffer containing 100 mM NaCl and 0.2 mM EDTA. The sample was allowed to sit at rt for 15 min and then was sonicated 3×4 mins on ice with a Branson Sonicator using duty cycle 1. This preparation provides vesicles with a mole fraction of 0.05 for the FRET substrate.
The enzymatic assay was measured using white, opaque 96-well half area plates. Each well contained 60 μL of assay buffer (50 mM HEPES pH 8.0, 50 mM NaCl and 1 mM CaCl2) and 2 ul of a DMSO solution containing compound of interest. Conditioned media obtained from HT-1080 cells, which were transformed by RAGE technology (Athersys) to overexpress endogenous EL, was added and the reaction was allowed to incubate for 20 min at 37° C. with gentle agitation. The reaction was started by the addition of 20 μL of a 1:4 dilution of vesicles. The final total reaction volume was 100 μL. The reaction rates were measured on a Gemini plate reader with an excitation wavelength of 488 nm and an emission of 530 nm. Readings were taken every 20 seconds for 10 min with agitation between each reading. The slope of the linear portion of the readout was used to calculate the rate of the reaction.

[1] = range observed in the EL assay, read-out: EL IC50 values
[2] = conditioned media from HT-1080 cells overexpressing endogenous EL, 20 min preincubation at 37° C., read-out: EL IC50

Row | Compound | IC50 [1] | IC50 [2]
1 | O=C(N[C@H]1CC[C@@H](NC(=O)c2[nH]c(=O)[nH]c(=O)c2O)CC1)c1ccccc1 [Example 260, N-((1s,4s)-4-benzamidocyclohexyl)-5-hydroxy-2,6-dioxo-1,2,3,6-tetrahydropyrimidine-4-carboxamide] | ≤ 10 µM | –
2 | O=C(N[C@@H]1CC[C@H](c2ccccc2)C1)c1[nH]c(=O)[nH]c(=O)c1O [Example 271, 5-Hydroxy-2,6-dioxo-N-((1R,3S)-3-phenylcyclopentyl)-1,2,3,6-tetrahydropyrimidine-4-carboxamide] | ≤ 10 µM | –
3 | O=C(N[C@H]1CC[C@@H](c2ccccc2)CC1)c1[nH]c(=O)[nH]c(=O)c1NCCO [Example 217, 5-(2-hydroxyethylamino)-2,6-dioxo-N-(cis-4-phenylcyclohexyl)-1,2,3,6-tetrahydropyrimidine-4-carboxamide] | ≤ 10 µM | –
4 | O=C(N[C@H]1CC[C@@H](c2ccccc2)CC1)c1[nH]c(=O)[nH]c(=O)c1NCCc1ccc(Cl)cc1 [Example 218, 5-(4-chlorophenethylamino)-2,6-dioxo-N-(cis-4-phenylcyclohexyl)-1,2,3,6-tetrahydropyrimidine-4-carboxamide] | ≤ 10 µM | 0.296 µM
5 | O=C(N[C@H]1CCCc2ccccc21)c1[nH]c(=O)[nH]c(=O)c1O [Example 245, (S)-5-hydroxy-2,6-dioxo-N-(1,2,3,4-tetrahydronaphthalen-1-yl)-1,2,3,6-tetrahydropyrimidine-4-carboxamide] | ≤ 10 µM | –
6 | Nc1c(C(=O)N[C@H]2CC[C@H](c3ccc(Cl)c(Cl)c3)C2)[nH]c(=O)[nH]c1=O [Example 69, 5-amino-N-((1S,3S)-3-(3,4-dichlorophenyl)cyclopentyl)-2,6-dioxo-1,2,3,6-tetrahydropyrimidine-4-carboxamide] | ≤ 10 µM | –
7 | O=C(N[C@@H]1CCCc2c(OCC3CCCC3)cccc21)c1[nH]c(=O)[nH]c(=O)c1O [Example 291, (R)-N-(5-(cyclopentylmethoxy)-1,2,3,4-tetrahydronaphthalen-1-yl)-5-hydroxy-2,6-dioxo-1,2,3,6-tetrahydropyrimidine-4-carboxamide] | ≤ 10 µM | –
8 | COc1ccc2c(c1)C(NC(=O)c1[nH]c(=O)[nH]c(=O)c1N)CC2 (single isomer, unassigned) [Example 73, 5-amino-N-(6-methoxy-2,3-dihydro-1H-inden-1-yl)-2,6-dioxo-1,2,3,6-tetrahydropyrimidine-4-carboxamide] | ≤ 10 µM | 0.468 µM
9 | O=C(N[C@@H]1CC[C@@H](C(=O)NCc2nc3ccccc3s2)C1)c1[nH]c(=O)[nH]c(=O)c1O [Example 296, N-((1R,3R)-3-(benzo[d]thiazol-2-ylmethylcarbamoyl)cyclopentyl)-5-hydroxy-2,6-dioxo-1,2,3,6-tetrahydropyrimidine-4-carboxamide] | ≤ 10 µM | –
10 | O=C(N[C@H]1CC[C@@H](c2ccccc2)CC1)c1[nH]c(=O)[nH]c(=O)c1NCCCN1CCOCC1 [Example 219, 5-(3-morpholinopropylamino)-2,6-dioxo-N-(cis-4-phenylcyclohexyl)-1,2,3,6-tetrahydropyrimidine-4-carboxamide] | ≤ 10 µM | –
11 | N#C[C@]1(c2ccc(Cl)c(Cl)c2)CC[C@@H](NC(=O)c2[nH]c(=O)[nH]c(=O)c2N)CC1 [Example 7, 5-amino-N-(cis-4-cyano-4-(3,4-dichlorophenyl)cyclohexyl)-2,6-dioxo-1,2,3,6-tetrahydropyrimidine-4-carboxamide] | ≤ 10 µM | –
12 | O=C(N[C@@H]1CC[C@@H](c2ccccc2)C1)c1[nH]c(=O)[nH]c(=O)c1O [Example 272, 5-hydroxy-2,6-dioxo-N-((1R,3R)-3-phenylcyclopentyl)-1,2,3,6-tetrahydropyrimidine-4-carboxamide] | ≤ 10 µM | –
13 | Nc1c(C(=O)N[C@H]2CC[C@@H](NC(=O)c3nc4ccccc4s3)CC2)[nH]c(=O)[nH]c1=O [Example 117, N-(cis-4-(5-amino-2,6-dioxo-1,2,3,6-tetrahydropyrimidine-4-carboxamido)cyclohexyl)benzo[d] thiazole-2-carboxamide] | ≤ 10 µM | 1.19 µM
14 | O=C(N[C@H]1CC[C@@H](c2ccccc2)CC1)c1[nH]c(=O)[nH]c(=O)c1NC1CCC1 [Example 233, 5-(cyclobutylamino)-2,6-dioxo-N-(cis-4-phenylcyclohexyl)-1,2,3,6-tetrahydropyrimidine-4-carboxamide] | ≤ 10 µM | –
15 | CCOc1cccc(C(=O)N[C@H]2CC[C@@H](NC(=O)c3[nH]c(=O)[nH]c(=O)c3N)CC2)c1 [Example 121, 5-amino-N-(cis-4-(3-ethoxybenzamido)cyclohexyl)-2,6-dioxo-1,2,3,6-tetrahydropyrimidine-4-carboxamide] | ≤ 10 µM | –
16 | O=C(N[C@H]1CC[C@@H](c2ccccc2)CC1)c1[nH]c(=O)[nH]c(=O)c1NCCCn1ccnc1 [Example 216, 5-(3-(1H-imidazol-1-yl)propylamino)-2,6-dioxo-N-(cis-4-phenylcyclohexyl)-1,2,3,6-tetrahydropyrimidine-4-carboxamide] | ≤ 10 µM | 3.48 µM
17 | COc1ccc2c(c1)[C@H](NC(=O)c1[nH]c(=O)[nH]c(=O)c1O)CCC2 [Example 264, (R)-5-hydroxy-N-(7-methoxy-1,2,3,4-tetrahydronaphthalen-1-yl)-2,6-dioxo-1,2,3,6-tetrahydropyrimidine-4-carboxamide] | ≤ 10 µM | –

Next, values leading:

Row | IC50 [1] | IC50 [2] | Compound
18 | ≤ 10 µM | – | NS(=O)(=O)c1ccc(CCNc2c(C(=O)N[C@H]3CC[C@@H](c4ccccc4)CC3)[nH]c(=O)[nH]c2=O)cc1 [Example 226, 2,6-dioxo-N-(cis-4-phenylcyclohexyl)-5-(4-sulfamoylphenethylamino)-1,2,3,6-tetrahydropyrimidine-4-carboxamide]
19 | ≤ 10 µM | – | Nc1c(C(=O)N[C@@H]2CCCc3cc(NC(=O)c4ccccc4)ccc32)[nH]c(=O)[nH]c1=O [Example 105, (R)-5-amino-N-(6-benzamido-1,2,3,4-tetrahydronaphthalen-1-yl)-2,6-dioxo-1,2,3,6-tetrahydropyrimidine-4-carboxamide]
20 | ≤ 10 µM | – | Nc1c(C(=O)NC2CCC(c3cccc(OCc4ccccc4)c3)C2)[nH]c(=O)[nH]c1=O (centres unmarked) [Example 104, 5-amino-N-(3-(3-(benzyloxy)phenyl)cyclopentyl)-2,6-dioxo-1,2,3,6-tetrahydropyrimidine-4-carboxamide]
21 | ≤ 10 µM | 0.512 µM | O=C(N[C@H]1CC[C@@H](c2ccccc2)CC1)c1[nH]c(=O)[nH]c(=O)c1NCc1cccnc1 [Example 209, 2,6-dioxo-N-(cis-4-phenylcyclohexyl)-5-(pyridin-3-ylmethylamino)-1,2,3,6-tetrahydropyrimidine-4-carboxamide]
22 | ≤ 10 µM | – | O=C(N[C@H]1CC[C@@H](c2ccccc2)CC1)c1[nH]c(=O)[nH]c(=O)c1NC1CCCc2ccccc21 (stereo partly drawn) [Example 224, 2,6-dioxo-N-(cis-4-phenylcyclohexyl)-5-(1,2,3,4-tetrahydronaphthalen-1-ylamino)-1,2,3,6-tetrahydropyrimidine-4-carboxamide]
23 | ≤ 10 µM | – | Nc1c(C(=O)N[C@H]2CCCc3cc(C(F)(F)F)ccc32)[nH]c(=O)[nH]c1=O [Example 52, (S)-5-amino-2,6-dioxo-N-(6-(trifluoromethyl)-1,2,3,4-tetrahydronaphthalen-1-yl)-1,2,3,6-tetrahydropyrimidine-4-carboxamide]
24 | ≤ 10 µM | – | Nc1c(C(=O)N[C@H]2CC[C@@H](c3ccc(-c4ccc(Cl)cc4)cc3)C2)[nH]c(=O)[nH]c1=O [Example 170, 5-amino-N-((1S,3R)-3-(4′-chlorobiphenyl-4-yl)cyclopentyl)-2,6-dioxo-1,2,3,6-tetrahydropyrimidine-4 carboxamide]
25 | ≤ 10 µM | – | Nc1c(C(=O)N[C@@H]2CCC[C@@H]2c2ccc(Cl)cc2)[nH]c(=O)[nH]c1=O [Example 64, 5-amino-N-((1R,2R)-2-(4-chlorophenyl)cyclopentyl)-2,6-dioxo-1,2,3,6-tetrahydropyrimidine-carboxamide]
26 | ≤ 10 µM | 0.967 µM | O=C(N[C@H]1CC[C@@H](c2ccccc2)CC1)c1[nH]c(=O)n(CC(F)(F)F)c(=O)c1O [Example 243, 5-hydroxy-2,6-dioxo-N-(cis-4-phenylcyclohexyl)-1-(2,2,2-trifluoroethyl)-1,2,3,6-tetrahydropyrimidine-4-carboxamide]
